# Data reported in ChEMBL document CHEMBL1131056, “Rational design of antitumor prostaglandins with high biological stability” (J Med Chem, 1998).
# Tested on: Colon 26
# Assay: Antiproliferative Activity against colon 26 cancer cells
# Format: functional, cell-based
# Settings: Mus musculus
row,Structure (SMILES),IC50 [mg/L]
1,CCCCC[C@H](O)/C=C/[C@H]1C=CC(=O)/C1=C/CCCCCC(=O)O,0.57
2,CCCCCC/C=C/[C@@H]1C=CC(=O)/C1=C/CCCCCC(=O)O,0.23
3,CCCCC[C@@H](O)/C=C/[C@@H]1C=CC(=O)/C1=C/CCCCCC(=O)O,0.5
4,CCCCC[C@H](O)/C=C/[C@@H]1C=CC(=O)/C1=C/CCCCCC(=O)O,0.35

# Tested on: A 172
# Assay: Growth inhibition time for A172 Human Glioma cell growth at concentration 5 uM
# Format: functional
# Settings: not given
row,Structure (SMILES),Inhibition period [h]
1,CCCCC[C@@H](O)/C=C/[C@@H]1C=CC(=O)/C1=C/CCCCCC(=O)OC,>72
2,CCCCC[C@H](O)/C=C/[C@H]1C=CC(=O)/C1=C/CCCCCC(=O)OC,<48
3,CCCCC[C@H](O)/C=C/[C@@H]1C=CC(=O)/C1=C/CCCCCC(=O)OC,>72
